Source: patent US11315778B2, “Spray chambers and methods of using them” (PERKINELMER HEALTH SCIENCES CANADA, INC., priority 2016, dated 2022)

Assays:
Assay type in all cases: cell-based
[1] = test system: ovarian cancer cell line (CP70); experiment: Single cell ICP-MS of cisplatin-exposed CP70 cells (195Pt monitored); conditions: over the course of eight hours, FIG. 21
Experimental: A cell suspension can be nebulized by introducing the cell suspension through a nebulizer fluidically coupled to a spray chamber as described herein. The spray chamber can select individual cells and provide them to an inductively coupled plasma. As each cell enters the plasma, it is ionized, and the resulting ion burst from the intrinsic metal species is detected by a mass spectrometer. Each cell is treated the same as an individual particle. Cell concentrations can desirably be around 100,000 cell/mL to minimize coincidence—a situation where to cells are provided at the same time to the plasma.
To determine the effectiveness of detection of cisplatin using single cell ICP-MS using the spray chambers described herein, an ovarian cancer cell line (CP70) was exposed to cisplatin and monitored over time. Analyses were carried out on a PerkinElmer NexION 350 D ICP-MS with a 2 mm quartz injector and quartz torch operating with an RF power of 1600 W. A spray chamber as shown in FIG. 2 (though the spray chambers of FIGS. 3, 4 and 5A-5D could be used instead) can be used with a high efficiency concentric glass nebulizer (Meinhard) was used with the spray chamber and the NexION 350 D instrument.
Because background levels of Pt are non-existent and there are no common interferences on 195Pt, each spike represents Pt detected in an individual cell. […]

[2] = test system: A2780 ovarian cancer cell line; experiment: Cisplatin uptake time course, single cell ICP-MS
Experimental: (§1) Cisplatin uptake in two ovarian cancer cell lines was evaluated using single particle ICP-MS (SP-ICP-MS). The ovarian cancer cell lines A2780 and A2780/CP70 were used in all experiments. Cells were grown in RPMI […] media (Gibco™) supplemented with 10% fetal bovine serum (FBS, Gibco™), insulin (Sigma-Aldrich™), 1-glutamine (Gibco™), and pen/strep (Gibco™) under 5% CO2 at 37° C. For serum starvation experiments, cells were plated and allowed to attach to the dishes. The media was removed and replaced with serum-free media for approximately 18 hours after which the media was replaced with regular media to begin cisplatin treatment. Cisplatin was re-suspended at 1 mg/mL in sterile saline and vigorously shaken for 30 minutes prior to treatment. Cells were treated with 30μM cisplatin for a time course where samples were collected at 1, 2, 4, and 8 hours post-treatment. For analysis, cells were washed twice with phosphate-buffered saline (PBS) and collected using the non-enzymatic cell dissociation solution Cellstripper (Corning™). Cells were centrifuged at 500×g for 10 minutes. The supernatant was discarded, and the cells were resuspended in 1 mL PBS, filtered through a 70μm nylon mesh, and quantitated by hemocytometer counting. Cells were diluted in PBS to a final concentration of 100,000 cells/mL and kept on ice until injection.
(§2) Analyses were performed with PerkinElmer's NexION® ICP-MS using the Syngistix™ Single Cell Application Software Module for data collection and processing. Instrumental conditions were as follows: sample uptake rate 0.04 mL/minute, 2.0 mm id quartz injector, 1600 Watts RF power, 0.36 L/minute nebulizer gas flow rate, 0.7 L/minute makeup gas flow rate, and a 60 second sample analysis time. A Meinhard HEN nebulizer and the spray chamber of FIG. 2 were also used (though the spray chambers of FIGS. 3, 4 and 5A-5D could be used instead). The Single Cell Sample Introduction Kit (Part No. N8150031) was used for sample introduction to the NexION. The kit consists of a high-efficiency nebulizer (Part No. N8142046) and the spray chamber designed for transport of cells to the plasma. Cells (1-100 microns) are larger than droplets which typically pass through conventional spray chambers (less than 2 microns).
(§3) Ionic platinum standards were prepared in PBS to matrix match the cell sample. A standard curve was generated using 1, 2, and 3 ppb platinum standard. Transport efficiency was determined using […] gold nanoparticles in PBS.
(§4) The cells chosen for this study are the ovarian cancer cell lines A2780 and A2780/CP70, which are good models for developing the single cell method since the molecular mechanism for resistance […]. A2780 is a cisplatin-sensitive cell line, while the A2780/CP70 line is cisplatin resistant. This resistance was developed by exposing the A2780 parental cell line to increasing doses of cisplatin. The A2780/CP70 cells developed resistance by reducing cisplatin uptake in addition to up-regulating DNA repair. We explored cisplatin uptake by performing a time course experiment to analyze how the distribution of cisplatin uptake changed over time within the cellular population. Both cell lines were treated for 1, 2, 4, and 8 hours with 30μM cisplatin. […] After the data is collected, the mass distribution peak can be integrated, as shown in FIG. 30C (frequency vs mass(ag)).
(§5) The time course data was summarized by fitting each histogram with a Log Normal curve. The mean intensity was determined for each time point and plotted to show the cisplatin uptake difference between A2780 and A2780/CP70 cells over time, as shown in FIG. 33.

[3] = test system: A2780/CP70 ovarian cancer cell line; experiment: Cisplatin uptake time course, single cell ICP-MS
Experimental: as §1, §2, §3, §4, §5

N.N.[Cl][Pt][Cl] [cisplatin]
Pt content within cells (cisplatin uptake) [1]: increases over time | uptake of platinum ([2]; A2780, 30μM cisplatin, one hour of treatment): very little uptake of platinum | effect of serum starvation on cisplatin uptake ([2]; A2780, serum-starved vs control cells, FIGS. 34A and 34B): no effect on the uptake of cisplatin | cisplatin uptake over time (mean intensity of Log Normal fit) ([2]; A2780 vs A2780/CP70, 30μM cisplatin, 1-8 hours, FIG. 33): increased cisplatin uptake | population of cells by cisplatin content, comparison of cell lines ([2]; A2780 vs A2780/CP70, 30μM cisplatin, eight hours): increased population of cells with more cisplatin than A2780/CP70 | uptake of platinum ([3]; A2780/CP70, 30μM cisplatin, one hour of treatment): very little uptake of platinum | effect of serum starvation on cisplatin uptake ([3]; A2780/CP70, serum-starved vs control cells, FIGS. 34A and 34B): no effect on the uptake of cisplatin
